According to publication PMC8901179 (Journal of medicinal chemistry, 2019):

Assays:
[1] = test system: Bmal1-dLuc U2OS cells; assay: Cell-based circadian assay; settings: for fold more potent than longdaysin (period lengthening): relative to longdaysin
[2] = test system: mouse behavioral rhythms; settings: cited from earlier work
[3] = test system: mouse behavioral rhythms; assay: Circadian behavior measurement, infusion into the lateral ventricle; assay type: in vivo, mice; settings: 1 mM infusion, constant darkness
[4] = test system: Bmal1-dLuc U2OS cells; settings: cited from earlier work
[5] = test system: 374 kinases; assay: Profiling toward 374 kinases; assay type: biochemical; settings: 5 μM compound

| Compound | period lengthening activity (in words) [1] | fold more potent than longdaysin (period lengthening) [1] | other results |
| --- | --- | --- | --- |
| CC(C)n1cnc2c(NCc3cccc(C(F)(F)F)c3)nc(NCCN3CCOCC3)nc21 [6f, 9-Isopropyl-N2-(2-morpholinoethyl)-N6-(3-(trifluoromethyl)-benzyl)-9H-purine-2,6-diamine] | decreased activity | – | – |
| CC(C1CC1)n1cnc2c(OCc3cccc(C(F)(F)F)c3)nc(NCCN(C)C)nc21 (stereo not shown) [7d, N1-(9-(1-Cyclopropylethyl)-6-((3-(trifluoromethyl)benzyl)oxy)-9H-purin-2-yl)-N2,N2-dimethylethane-1,2-diamine] | dramatic decrease in the period lengthening activity | – | – |
| CC(C1CC1)n1cnc2c(NCc3cccc(C(F)(F)F)c3)ncnc21 (stereo not shown) [7a] | – | ~ 3 fold | – |
| Nc1nccc(-c2c(-c3ccc(F)cc3)ncn2C2CCCCC2)n1 [PF-670462] | – | – | period change in vivo (in words) [2]: only small period change in vivo |
| CC(C)n1cnc2c(NCc3cccc(C(F)(F)F)c3)nc(NCCN)nc21 [6k, N2-(2-Aminoethyl)-9-isopropyl-N6-(3-(trifluoromethyl)benzyl)-9H-purine-2,6-diamine] | much less activity compared to 6a | – | – |
| CC(C)n1cnc2c(NCc3cccc(C(F)(F)F)c3)nc(N3CCC(O)CC3)nc21 [6d, 1-(9-Isopropyl-6-((3-(trifluoromethyl)benzyl)amino)-9H-purin-2-yl)piperidin-4-ol] | decreased activity | – | – |
| CC(C)n1cnc2c(NCc3cccc(C(F)(F)F)c3)ncnc21 [longdaysin] | – | – | fold more potent than benipurine (1 h period lengthening) ([1]; relative to benipurine): 3 fold; period lengthening of circadian behavior [3]: about 0.05 h; compound concentration for 1 h period lengthening [4]: 0.3 µM |
| CC(C)n1cnc2c(NCc3cccc(C(F)(F)F)c3)nc(NCCN(C)C)nc21 [6a, N2-(2-(Dimethylamino)ethyl)-9-isopropyl-N6-(3-(trifluoromethyl)benzyl)-9H-purine-2,6-diamine] | – | ~ 3 fold | – |
| CC(C1CC1)n1cnc2c(NCc3cccc(C(F)(F)F)c3)nc(NCCN(C)C)nc21 (stereo not shown) [7b, 9-(1-Cyclopropylethyl)-N2-(2-(dimethylamino)ethyl)-N6-(3-(trifluoromethyl)benzyl)-9H-purine-2,6-diamine] | – | ~ 10 fold | number of kinases among 374 kinases inhibited by more than 50% [5]: 9 |
| CC(C1CC1)n1cnc2c(N(C)Cc3cccc(C(F)(F)F)c3)nc(NCCN(C)C)nc21 (stereo not shown) [7c, 9-(1-Cyclopropylethyl)-N2-(2-(dimethylamino)ethyl)-N6-methyl-N6-(3-(trifluoromethyl)benzyl)-9H-purine-2,6-diamine] | dramatic decrease in the period lengthening activity | – | – |
